Measured values reported in US7652037B2, “Methods of lowering lipid levels in a mammal” (City Of Hope, priority 2003, dated 2010).
pIC50: −log10 of the molar value.

What was measured:
[1] = test system: rats with diabetic nephropathy; conditions: rats with diabetic nephropathy (Forbes et al.); cited from earlier work
[2] = test system: diabetic and hyperlipidemic rats; conditions: diabetic and hyperlipidemic rats (Degenhardt et al.; Alderson et al.); cited from earlier work
[3] = Superoxide production, methylglyoxal with N-α-acetyl-lysine, WST-1 assay
Experimental: The superoxide radical scavenging activity of the compounds was evaluated using the WST-1 method described in Ukeda et al., Anal. Sci. 18:1151-1154, 2002. Briefly, methylglyoxal, was incubated with or without N-α-acetyl-lysine in 0.05 M chelex-treated sodium phosphate buffer, pH 7.4, in the presence of various concentrations of the inhibitor compounds. The production of superoxide was monitored spectrophotometrically at 438 nm, and compared with superoxide dismutase and Tiron, two known superoxide radical scavengers.

[4] = Inhibition of copper-catalyzed oxidation of ascorbic acid (Cu2+ chelating activity); conditions: 500 nmol/L CuCl2, 500 μmol/L ascorbic acid, phosphate buffer pH 7.4, 60 minutes; read-out: IC50, concentration that inhibited the rate of AA oxidation by 50%
Experimental: In vitro measurement of the kinetics of inhibition of copper-catalyzed oxidation of ascorbic acid was performed according to the methods of Price et al., J. Biol. Chem. 276:48967-48972, 2001. Briefly, CuCl2 and various concentrations of inhibitor compounds were pre-incubated in chelex-treated 20 mmol/L phosphate buffer, pH 7.4, for 5 minutes. Ascorbic acid then was added (50 μL of 10 mmol/L in water) to initiate the reaction (1 mL total reaction volume). The final concentrations of CuCl2 and ascorbic acid in the reaction were 500 nmol/L and 500 μmol/L, respectively. Aliquots (135 μL) were removed at 0 and 60 minutes and transferred to autoinjector vials containing 15 μL of 10 mmol/l DTPA. Samples were analyzed by reversed phase HPLC on an XTerra™ RP18 column (250 mm×4.6 mm, 5 μm) with an XTerra™ RP18 5 μm guard column using a Waters® 2690 Separator Module equipped with auto-injector and Millenium® 32 software. Solvents and gradient were all used as described in Dillon et al., Life Sci. 72:1583-1594, 2003. The absorbance of ascorbic acid was measured at 244 nm and the peak area was obtained to estimate the percent of ascorbic acid remaining versus time. For each inhibitor compound, the concentration that inhibited the rate of AA oxidation by 50% (IC50), was calculated with respect to the control using Prism™ software.

Human LDL [5] = test: Cu++-mediated oxidation of LDL, TBARS (Example 9); conditions: 5 μM CuCl2, 10-250 μM compound, 5 hours, 37° C.
Experimental: The ability of the LR compounds to inhibit lipid peroxidation was tested using Cu^++-mediated lipid oxidation, a common in vitro model for studies on lipoxidative modifications of proteins. The effects of the LR compounds on lipid peroxidation were studied using Cu^++-mediated oxidation of LDL. Human LDL (50 μg of protein/mL) was incubated at 37° C. in chelex-treated PBS buffer alone or in the presence of 5 μM CuCl2 or 5 μM CuCl2 plus various concentrations of the inhibitor compounds (10-250 μM). After 5 hours of incubation, the amount of thiobarbituric acid reactive substances (expressed as malondialdehyde (MDA) equivalents) generated in the reaction mixture was calculated according to methods described by Dillon et al., Life Sci. #72:1583-1594, 2003. Briefly, aliquots from each sample were precipitated with 20% trichloroacetic acid, centrifuged and an equal volume of 1% thiobarbituric acid was added to the supernatant. The samples then were heated to 95° C. for 10 minutes, and upon cooling, the absorbance was read at 532 nm. Hydrolyzed tetraethoxypropane was used as a standard for the MDA equivalent calculation.

Human LDL [6] = test: Cu++-mediated LDL oxidation, TBARS (Example 16); conditions: 250 μM compound, followed for 5 hours; control lag phase about 2 hours
Experimental: Human LDL was isolated from plasma of healthy donors by single vertical spin centrifugation (see Chung et al., Methods Enzymol. 128:181-209, 1986) and used within 24-48 hours of preparation. LDL (50 μg/mL) was incubated at 37° C. in 50 mM chelex-treated phosphate buffer, pH 7.4, alone or in the presence of 5 μM CuCl2 or 5 μM CuCl2 plus various concentrations of the LR compounds. After 5 hours of incubation, aliquots from each reaction mixture were removed for measurement of thiobarbituric acid-reacting substances (TBARS) as described in Satoh, Clin. Chim. Acta 90:37-43, 1978. Briefly, 250 μL of 20% trichloroacetic acid was added to 500 μL of sample aliquot, followed by 750 μL of 1% […]. The samples then were vortexed and incubated in a boiling water bath for 10 minutes. Upon cooling, the samples were centrifuged for 5 minutes at 5000 rpm. Absorbance of the supernatant was taken at 532 nm, and expressed as MDA equivalents using 1,1,3,3-tetramethoxypropane as standards. For fatty acid oxidation studies, linoleic acid (5#mM) was incubated alone or in the presence of 1 mM LR compound in […] phosphate buffer, pH 7.4, for 7 days at 37° C. Aliquots from each reaction mixture were withdrawn periodically for measurement of TBARS as described above.
Results are shown in FIG. 23A, where values are provided as means±SD of two independent experiments (n=4 for each treatment). In separate experiments, the time course for the oxidative modification fo LDL by Cu^++ in the presence of 250 μM compound was followed for 5 hours and aliquots for each time interval were assayed for TBARS. Values in FIG. 23B are means±SD of two independent experiments (n=4 per treatment).

Row | SMILES | increase in CML-AGE and nitrotyrosine staining [1] | lipid-lowering effects [2] | effect on superoxide production [3] | pIC50 [4] | inhibition of Cu++-mediated LDL oxidation (lipid peroxidation) (Human LDL [5]) | inhibition of Cu++-mediated LDL oxidation (lipid peroxidation) (Human LDL [5]; listed as pyridoxamine) | time course of Cu++-mediated oxidation of LDL (Human LDL [6])
1 | N=C(N)NN [AG, aminoguanidine, reference compound] | attenuated | lipid-lowering effects | little or no effect | 2.56 |  |  | 
2 | Cc1ncc(CO)c(CN)c1O [PM, pyridoxamine, reference compound] |  | lipid-lowering effects |  |  | no effect | minimal effects | no effect
3 | CCOC(=O)[C@H](CCc1ccccc1)N[C@@H](C)C(=O)N1[C@H](C(=O)O)C[C@@H]2CCC[C@@H]21 [ramipril] | attenuated |  |  |  |  |  | 
